{"source": "patent US9873683B2", "about": "“P2X4 receptor antagonist” (NIPPON CHEMIPHAR CO., LTD., priority 2013, dated 2018)", "target": "human P2X4 receptor (Homo sapiens (Human), UniProt Q99571)", "sequence (Q99571 whole entry)": "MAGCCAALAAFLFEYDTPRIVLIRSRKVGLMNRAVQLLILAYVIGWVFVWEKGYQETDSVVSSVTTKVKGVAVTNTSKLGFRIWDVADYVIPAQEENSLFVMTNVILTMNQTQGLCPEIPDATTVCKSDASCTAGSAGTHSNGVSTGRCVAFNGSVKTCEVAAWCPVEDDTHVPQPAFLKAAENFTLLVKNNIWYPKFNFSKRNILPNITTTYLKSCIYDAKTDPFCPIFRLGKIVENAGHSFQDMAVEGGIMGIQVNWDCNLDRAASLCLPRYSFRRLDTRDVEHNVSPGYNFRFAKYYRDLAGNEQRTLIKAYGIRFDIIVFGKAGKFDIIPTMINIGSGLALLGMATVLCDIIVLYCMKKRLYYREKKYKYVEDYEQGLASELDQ", "test": "P2X4 receptor antagonist activity (ATP-induced intracellular calcium, Fura-2 AM)", "assay_type": "cell-based", "settings": "1321N1 cells stably expressing human P2X4 receptor; test substance 15 minutes before addition of ATP; Fura-2 AM F340/F380; read-out: Inhibitory activity IC50", "experimental": "The ATP receptor (human P2X4) was introduced into the 1321N1 cells, and the cells were used as a stable ATP receptor expression system. The P2X4-expressing 1321N1 cells were seeded on a 96-well plate, cultured under the conditions of 37° C. and 5% CO2 for 24 hours, and used for calcium measurement. […] For the measurement, a microplate reader, Fluostar Optima (BMG Labtech), was used. The light emitted from a xenon lamp was passed through 340 nm and 380 nm filters, respectively, and irradiated on the cells, fluorescences of 510 nm, F340 and F380, emitted from the cells were measured, and change of the ratio F340/F380 was used as an index of change of intracellular calcium level. The measurement was performed by adding ATP to each well at a final concentration of 1 μM, and observing the ATP-induced Ca^2+ response over time.\nThe 1321N1 cells stably expressing human P2X4 receptor were seeded on a 96-well plate, cultured under the conditions of 37° C. and 5% CO2 for 24 hours, and then used for intracellular calcium measurement. Fura-2 AM, which is a calcium fluorescent indicator, was used for the intracellular calcium measurement. […] The ratio of fluorescence values obtained with excitation lights of 340 nm and 380 nm was used as an index of the change of intracellular calcium level, and the inhibitory activity of the test substance was calculated on the basis of the comparison with the value obtained in the absence of the test substance (control).", "note": "Several values for one entry are separate records, joined by “and”; a condition that tells them apart may be missing. Identical values can stand only once. Counter-ions that a name gives are not always drawn.", "data": [{"compound": "5-[4-[(5-Phenylethyl)-1H-imidazol-4-yl]phenyl]-1H-naphtho[1,2-b][1,4]diazepine-2,4(3H,5H)-dione hydrochloride [Example 73]", "values": [{"measurement": "IC50", "result": 0.32, "unit": "µM"}]}, {"compound": "COc1ccccc1Cc1nnnn1-c1ccc(N2C(=O)CC(=O)Nc3c2ccc2ccccc32)cc1", "note": "[Example 1, 5-[4-[5-(2-Methoxybenzyl)-1H-tetrazol-1-yl]phenyl]-1H-naphtho[1,2-b][1,4]diazepine-2,4(3H,5H)-dione]", "values": [{"measurement": "IC50", "result": 0.025, "unit": "µM"}]}, {"compound": "O=C1CC(=O)N(c2ccc(-n3nnnc3Cc3ccccc3O)cc2)c2ccc3ccccc3c2N1", "note": "[Example 2, 5-[4-[5-(2-Hydroxybenzyl)-1H-tetrazol-1-yl]phenyl]-1H-naphtho[1,2-b][1,4]diazepine-2,4(3H,5H)-dione]", "values": [{"measurement": "IC50", "result": 0.037, "unit": "µM"}]}, {"compound": "O=C1CC(=O)N(c2ccc(-n3nnnc3CCc3cccnc3)cc2)c2ccc3ccccc3c2N1", "note": "[Example 3, 5-[4-[5-[2-(Pyridin-3-yl)ethyl]-1H-tetrazol-1-yl]phenyl]-1H-naphtho[1,2-b][1,4]diazepine-2,4(3H,5H)-dione hydrochloride]", "values": [{"measurement": "IC50", "result": 0.38, "unit": "µM"}]}, {"compound": "O=C1CC(=O)N(c2ccc(-n3nnnc3CCc3ccccc3)cc2)c2ccc3ccccc3c2N1", "note": "[Example 4, 5-[4-(5-Phenethyl-1H-tetrazol-1-yl)phenyl]-1H-naphtho[1,2-b][1,4]diazepine-2,4(3H,5H)-dione]", "values": [{"measurement": "IC50", "result": 0.044, "unit": "µM"}]}, {"compound": "O=C1CC(=O)N(c2ccc(-n3nnnc3Cc3ccccc3O)nc2)c2ccc3ccccc3c2N1", "note": "[Example 11]", "values": [{"measurement": "IC50", "result": 0.077, "unit": "µM"}]}, {"compound": "COc1ccccc1Cc1nnnn1-c1ccc(C2=NCC(=O)Nc3c2ccc2ccccc32)cc1", "note": "[Example 19, 5-[4-[5-(2-Methoxybenzyl)-1H-tetrazol-1-yl]phenyl]-1H-naphtho[1,2-e][1,4]diazepin-2(3H)-one]", "values": [{"measurement": "IC50", "result": 0.32, "unit": "µM"}]}, {"compound": "O=C1CC(=O)N(c2ccc(-c3nccn3CCc3ccccc3)cc2)c2ccc3ccccc3c2N1", "note": "[Example 22, 5-[4-(1-Phenethyl-1H-imidazol-2-yl)phenyl]-1H-naphtho[1,2-b][1,4]diazepine-2,4(3H,5H)-dione hydrochloride]", "values": [{"measurement": "IC50", "result": 0.091, "unit": "µM"}]}, {"compound": "O=C1CC(=O)N(c2ccc(-c3nccn3Cc3ccc(Cl)cc3)cc2)c2ccc3ccccc3c2N1", "note": "[Example 23, 5-[4-[1-(4-Chlorobenzyl)-1H-imidazol-2-yl]phenyl]-1H-naphtho[1,2-b][1,4]diazepine-2,4(3H,5H)-dione hydrochloride]", "values": [{"measurement": "IC50", "result": 0.3, "unit": "µM"}]}, {"compound": "COc1cccc(CCn2ccnc2-c2ccc(N3C(=O)CC(=O)Nc4c3ccc3ccccc43)cc2)c1", "note": "[Example 25, 5-[4 [1-(3-Methoxyphenethyl)-1H-imidazol-2-yl]phenyl]-1H-naphtho[1,2-b][1,4]diazepine-2,4(3H,5H)-dione]", "values": [{"measurement": "IC50", "result": 0.082, "unit": "µM"}]}, {"compound": "O=C1CC(=O)N(c2ccc(-c3nccn3CCc3cccc(O)c3)cc2)c2ccc3ccccc3c2N1", "note": "[Example 27, 5-[4-[1-(3-Hydroxyphenethyl)-1H-imidazol-2-yl]phenyl]-1H-naphtho[1,2-b][1,4]diazepine-2,4(3H,5H)-dione]", "values": [{"measurement": "IC50", "result": 0.078, "unit": "µM"}]}, {"compound": "Cc1cccc(CCc2nnnn2-c2ccc(N3C(=O)CC(=O)Nc4c3ccc3ccccc43)cc2)n1", "note": "[Example 30, 5-[4-[5-[2-(6-Methylpyridin-2-ylethyl)-1H-tetrazol-1-yl]-phenyl]-1H-naphtho[1,2-b][1,4]diazepine-2,4(3H,5H)-dione hydrochloride]", "values": [{"measurement": "IC50", "result": 0.27, "unit": "µM"}]}, {"compound": "O=C1CC(=O)N(c2ccc(-n3ccnc3CCc3cccc(F)c3)cc2)c2ccc3ccccc3c2N1", "note": "[Example 31, 5-[4-[(2-(3-Fluorophenyl)ethyl)-1H-imidazol-1-yl]phenyl]-1H-naphtho[1,2-b][1,4]diazepine-2,4(3H,5H)-dione hydrochloride]", "values": [{"measurement": "IC50", "result": 0.051, "unit": "µM"}]}, {"compound": "COc1ccccc1CCc1nccn1-c1ccc(N2C(=O)CC(=O)Nc3c2ccc2ccccc32)cc1", "note": "[Example 32, 5-[4-[(2-(2-Methoxyphenyl)ethyl)-1H-imidazol-1-yl]phenyl]-1H-naphtho[1,2-b][1,4]diazepine-2,4(3H,5H)-dione hydrochloride]", "values": [{"measurement": "IC50", "result": 0.18, "unit": "µM"}]}, {"compound": "Cc1cccc(C)c1CCc1nccn1-c1ccc(N2C(=O)CC(=O)Nc3c2ccc2ccccc32)cc1", "note": "[Example 37, 5-[4-[2-(2,6-Dimethylphenylethyl)-1H-imidazol-1-yl]phenyl]-1H-naphtho[1,2-b][1,4]diazepine-2,4(3H,5H)-dione hydrochloride]", "values": [{"measurement": "IC50", "result": 0.079, "unit": "µM"}]}, {"compound": "O=C1CC(=O)N(c2ccc(-n3ccnc3CCc3cccc(C(F)(F)F)c3)cc2)c2ccc3ccccc3c2N1", "note": "[Example 38, 5-[4-[2-[3-(Trifluoromethyl)phenylethyl]-1H-imidazol-1-yl]phenyl]-1H-naphtho[1,2-b][1,4]diazepine-2,4(3H,5H)-dione hydrochloride]", "values": [{"measurement": "IC50", "result": 0.55, "unit": "µM"}]}, {"compound": "O=C1CN=C(c2ccc(-n3nnnc3CCc3ccccc3)cc2)c2ccc3ccccc3c2N1", "note": "[Example 40, 5-[4-(5-Phenethyl-1H-tetrazol-1-yl)phenyl]-1H-naphtho[1,2-e][1,4]diazepin-2(3H)-one]", "values": [{"measurement": "IC50", "result": 0.63, "unit": "µM"}]}, {"compound": "O=C1CN=C(c2ccc(-n3ccnc3CCc3ccccc3)cc2)c2ccc3ccccc3c2N1", "note": "[Example 41, 5-[4-(2-Phenethyl-1H-imidazol-1-yl)phenyl]-1H-naphtho[1,2-e][1,4]diazepin-2(3H)-one dihydrochloride]", "values": [{"measurement": "IC50", "result": 0.65, "unit": "µM"}]}, {"compound": "O=C1CC(=O)N(c2ccc(-n3ccnc3CCc3cccc(O)c3)cc2)c2ccc3ccccc3c2N1", "note": "[Example 43, 5-[4-[2-(3-Hydroxyphenethyl)-1H-imidazol-1-yl]phenyl]-1H-naphtho[1,2-b][1,4]diazepine-2,4(3H,5H)-dione hydrochloride]", "values": [{"measurement": "IC50", "result": "0.053 µM and 0.19 µM"}]}, {"compound": "CN(C)c1ccccc1Cc1nnnn1-c1ccc(N2C(=O)CC(=O)Nc3c2ccc2ccccc32)cc1", "note": "[Example 47, 5-[4-[5-[2-(Dimethylamino)benzyl]-1H-tetrazol-1-yl]phenyl]-1H-naphtho[1,2-b][1,4]diazepine-2,4(3H,5H)-dione mesylate]", "values": [{"measurement": "IC50", "result": 0.094, "unit": "µM"}]}, {"compound": "O=C1CC(=O)N(c2ccc(-n3ccnc3-c3ccccc3)cc2)c2ccc3ccccc3c2N1", "note": "[Example 50, 5-[4-(2-Phenyl-1H-imidazol-1-yl)phenyl]-1H-naphtho[1,2-b][1,4]diazepine-2,4(3H,5H)-dione]", "values": [{"measurement": "IC50", "result": 3.7, "unit": "µM"}]}, {"compound": "COc1ccccc1-c1nccn1-c1ccc(N2C(=O)CC(=O)Nc3c2ccc2ccccc32)cc1", "note": "[Example 51, 5-[4-[2-(2-Methoxyphenyl)-1H-imidazol-1-yl]phenyl]-1H-naphtho[1,2-b][1,4]diazepine-2,4(3H,5H)-dione]", "values": [{"measurement": "IC50", "result": 1.7, "unit": "µM"}]}, {"compound": "NC(=O)c1ccccc1Cn1ccnc1-c1ccc(N2C(=O)CC(=O)Nc3c2ccc2ccccc32)cc1", "note": "[Example 53, 2-[[2-[4-(2,4-Dioxo-3,4-dihydro-1H-naphtho[1,2-b][1,4]diazepin-5(2H)-yl)phenyl]-1H-imidazol-1-yl]methyl]benzamide]", "values": [{"measurement": "IC50", "result": 0.59, "unit": "µM"}]}, {"compound": "N#Cc1ccccc1CCc1nccn1-c1ccc(N2C(=O)CC(=O)Nc3c2ccc2ccccc32)cc1", "note": "[Example 54, 2-[2-[1-[4-(2,4-Dioxo-3,4-dihydro-1H-naphtho[1,2-b][1,4]diazepin-5(2H)-yl)phenyl]-1H-imidazol-2-yl]ethyl]benzonitrile]", "values": [{"measurement": "IC50", "result": 0.19, "unit": "µM"}]}, {"compound": "NC(=O)c1ccccc1CCc1nccn1-c1ccc(N2C(=O)CC(=O)Nc3c2ccc2ccccc32)cc1", "note": "[Example 55, 2-[2-[1-[4-(2,4-Dioxo-3,4-dihydro-1H-naphtho[1,2-b][1,4]diazepin-5(2H)-yl)phenyl]-1H-imidazol-2-yl]ethyl]benzamide]", "values": [{"measurement": "IC50", "result": 0.34, "unit": "µM"}]}]}
